Assay results as given in patent US9714288B2, “Antisense compounds and uses thereof” (The Regents of the University of California, priority 2014, dated 2017).
pIC50: −log10 of the molar value. Converted amounts (≈) assume the structure as drawn. Oligonucleotides are written 5' to 3', each unit as a sugar letter and its base; * is a phosphorothioate linkage, no mark a phosphodiester; rarer units and linkages stand in square brackets, end groups in braces. Plain capitals give the bases only. k = constrained ethyl (cEt); [5mC] = 5-methylcytosine; d = 2'-deoxy (DNA)

Legend:
MXD3 mRNA = MXD3 mRNA levels in K-562 cells by quantitative real-time PCR; format: cell-based, human; conditions: for MXD3 mRNA at 10 μM oligonucleotide (% control): K-562 cells electroporated with 10 μM, ~24 hours, relative to untreated control; for pIC50: K-562 cells, MXD3 mRNA, 0-35.0 μM, approximate values
Excerpt: Several hundred antisense oligonucleotides that target human MAX Dimerization Protein 3 (MXD3), GENBANK accession number NT_023133.13 truncated 21540000 to 21577000, SEQ ID NO: 1, were synthesized using standard solid phase oligonucleotide synthetic methods. They are chimeric oligonucleotides (“gapmers”) 16 nucleotides in length, composed of a central “gap” region consisting of 10 2′-deoxynucleotides, which is flanked on both sides (5′ and 3′) by three-nucleotide “wings”. The wings are composed of 4′-CH(CH3)—O-2′ modified nucleotides, also known as constrained ethyl or (S)-cEt nucleotides. The internucleoside (backbone) linkages are phosphorothioate throughout the oligonucleotides. All cytosine residues are 5-methylcytosines. The sequences of selected MXD3 targeting antisense oligonucleotides and their start and stop sites along GENBANK accession number NT_023133.13 truncated 21540000 to 21577000 are shown in Table 1 below.
The antisense oligonucleotides were analyzed for their effects on target mRNA levels. K-562 cells were plated at a density of 50,000 cells per well in 96-well plates and were electroporated with 10 μM oligonucleotide or with no oligonucleotide for untreated controls. After approximately 24 hours, RNA was isolated from the cells, and MXD3 mRNA levels were measured by quantitative real-time PCR using primer probe set RTS4263 (forward: 5′-[…]-3′, SEQ ID NO: 2; reverse: 5′-TGGCCAAGGGTTCCATGT-3′, SEQ ID NO: 3; probe: 5′-CTGCAGCCGCTTGCTCCGG-3′, SEQ ID NO: 4). MXD3 mRNA levels were adjusted according to total RNA content, as measured by RIBOGREEN®. Results for selected oligonucleotides are presented as average percent MXD3 mRNA level, relative to untreated control cells, in Table 1.
A subset of the MXD3 targeting antisense oligonucleotides were selected for dose response analysis in K-562 cells. Cells were electroporated with 0, 2.19, 8.75, or 35.0 μM antisense oligonucleotide and analyzed as described above. Results for selected oligonucleotides are presented as approximate IC50 values in Table 1.

[1] = Tolerability of antisense oligonucleotides in BALB/c mice; format: in vivo; conditions: 50 mg/kg s.c. twice per week for three weeks, #1 most favorable, #13 least favorable
Protocol: Selected antisense oligonucleotides were then tested for tolerability in vivo. Six week old, male BALB/c mice were injected subcutaneously twice per week for three weeks with 50 mg/kg of an antisense oligonucleotide listed in Table 1 or with PBS. Each treatment group consisted of 4 animals. Two days following the final oligonucleotide administration, the mice were sacrificed and plasma transaminase levels, body weights, and organ weights were evaluated relative to the PBS treated group. Isis numbers 632417, 632461, and 632640 had the most favorable tolerability rankings and were selected as leads. Isis No. 632461 targets human, mouse, and monkey MXD3 sequences with no mismatches and was chosen for use in further studies.

Reh cells = assay: Reh cell growth, number of live cells (MTT assay); format: cell-based, human; conditions: for IC50: Homo sapiens, experimentally determined, Reh cells; for Average number of live cells × 10^3: Table 9, Reh cells, conjugate 2 μM oligonucleotide, Doxorubicin 2.56 ng/mL, Vincristine 1.18 ng/mL

Compound	MXD3 mRNA at 10 μM oligonucleotide (% control) (MXD3 mRNA)	pIC50 (MXD3 mRNA)	Ranking (tolerability) [1]	IC50 (Reh cells)	Average number of live cells × 10^3 (Reh cells; 4 hours)	Average number of live cells × 10^3 (Reh cells; 8 hours)	Average number of live cells × 10^3 (Reh cells; 24 hours)	Average number of live cells × 10^3 (Reh cells; 48 hours)	Average number of live cells × 10^3 (Reh cells; 72 hours)
632407 (antisense k[5mC]*kA*kT*d[5mC]*d[5mC]*dA*d[5mC]*d[5mC]*d[5mC]*dA*d[5mC]*dG*d[5mC]*k[5mC]*kG*kG) [compound 632407]	60.5 % control	5.79	12						
632417 (antisense kG*kG*k[5mC]*d[5mC]*d[5mC]*dT*dG*dG*dA*dG*d[5mC]*dG*dA*kA*k[5mC]*k[5mC]) [compound 632417]	38.3 % control	5.15	1						
632424 (antisense kA*kG*k[5mC]*d[5mC]*dG*d[5mC]*dA*dG*d[5mC]*d[5mC]*d[5mC]*dA*d[5mC]*k[5mC]*k[5mC]*kT) [compound 632424]	94.4 % control	5.79	9						
632460 (antisense kA*kT*kA*dA*d[5mC]*d[5mC]*dA*dT*dG*d[5mC]*dT*d[5mC]*dG*kG*k[5mC]*k[5mC]) [compound 632460]	59.0 % control	5.53	13						
632461 (antisense k[5mC]*kA*k[5mC]*dA*dG*dG*dG*dA*d[5mC]*dG*d[5mC]*dA*dT*kA*kA*k[5mC]) [compound 632461]	59.8 % control	5.05	2						
632527 (antisense k[5mC]*kA*kT*d[5mC]*dA*dT*dA*dG*d[5mC]*d[5mC]*dA*dG*dG*k[5mC]*kG*k[5mC]) [compound 632527]	76.5 % control	5.03	8						
632528 (antisense kA*kG*kG*dA*dA*d[5mC]*dA*dT*d[5mC]*dA*dT*dA*dG*k[5mC]*k[5mC]*kA) [compound 632528]	63.6 % control	5.23	5						
632634 (antisense kG*kG*kA*dT*dT*dA*d[5mC]*dT*dG*dT*d[5mC]*d[5mC]*dT*kA*kG*kG) [compound 632634]	47.4 % control	5.24	10						
632640 (antisense k[5mC]*kA*kA*dG*d[5mC]*dA*dA*d[5mC]*dA*dA*dG*dT*dG*kG*kG*k[5mC]) [compound 632640]	65.6 % control	6.42	3						
632669 (antisense kT*kA*kA*dA*d[5mC]*dA*d[5mC]*dT*dT*dG*dT*d[5mC]*dA*kG*kA*kG) [compound 632669]	34.0 % control	5.04	4						
632672 (antisense kA*kT*k[5mC]*d[5mC]*dA*dT*d[5mC]*d[5mC]*dG*dA*dG*dA*dA*k[5mC]*k[5mC]*kA) [compound 632672]	50.3 % control	5.32	6						
632673 (antisense k[5mC]*kA*k[5mC]*dA*dT*d[5mC]*dA*dT*d[5mC]*d[5mC]*dA*dT*d[5mC]*k[5mC]*kG*kA) [compound 632673]	27.5 % control	5.25	7						
632682 (antisense kG*kT*k[5mC]*dA*dT*dT*d[5mC]*dA*dA*d[5mC]*dA*dA*dG*kA*kA*kG) [compound 632682]	28.4 % control	5.25	11						
COc1cccc2c1C(=O)c1c(O)c3c(c(O)c1C2=O)C[C@@](O)(C(=O)CO)C[C@@H]3O[C@H]1C[C@H](N)[C@H](O)[C@H](C)O1 [Doxo, Doxorubicin]				2.56 ng/mL (≈ 4.71 nM)	22.3 × 10^3	22.9 × 10^3	30 × 10^3	37 × 10^3	41.8 × 10^3
CC[C@]1(O)C[C@H]2CN(CCc3c([nH]c4ccccc34)[C@@](C(=O)OC)(c3cc4c(cc3OC)N(C=O)[C@H]3[C@@](O)(C(=O)OC)[C@H](OC(C)=O)[C@]5(CC)C=CCN6CC[C@]43[C@@H]65)C2)C1 [Vcr, Vincristine]				1.18 ng/mL (≈ 1.43 nM)	20.2 × 10^3	19.6 × 10^3	27.8 × 10^3	33.1 × 10^3	34.8 × 10^3
